The values below come from patent publication US10604523B2, “1-aryl-4-methyl-[1,2,4]triazolo[4,3-a]quinoxaline derivatives” (Janssen Pharmaceutica NV, priority 2011, dated 2020).

The target in assay [1] is T1, Human recombinant PDE2A (hPDE2A) (Homo sapiens, UniProt O00408).
T1 construct: made in house; host or cells: Sf9 insect cells (baculovirus)
Kind of assay: In vitro assay PDE2A (SPA, 3H-cGMP). Format: biochemical. As to conditions: read-out: pIC50 PDE2 (converted).

The target in assay [2] is T2, Rat recombinant PDE10A (rPDE10A2) (Rattus norvegicus, UniProt Q9QYJ6).
T2 construct: made in house; host or cells: Sf9 insect cells (baculovirus)
T2 sequence (Q9QYJ6 1-794): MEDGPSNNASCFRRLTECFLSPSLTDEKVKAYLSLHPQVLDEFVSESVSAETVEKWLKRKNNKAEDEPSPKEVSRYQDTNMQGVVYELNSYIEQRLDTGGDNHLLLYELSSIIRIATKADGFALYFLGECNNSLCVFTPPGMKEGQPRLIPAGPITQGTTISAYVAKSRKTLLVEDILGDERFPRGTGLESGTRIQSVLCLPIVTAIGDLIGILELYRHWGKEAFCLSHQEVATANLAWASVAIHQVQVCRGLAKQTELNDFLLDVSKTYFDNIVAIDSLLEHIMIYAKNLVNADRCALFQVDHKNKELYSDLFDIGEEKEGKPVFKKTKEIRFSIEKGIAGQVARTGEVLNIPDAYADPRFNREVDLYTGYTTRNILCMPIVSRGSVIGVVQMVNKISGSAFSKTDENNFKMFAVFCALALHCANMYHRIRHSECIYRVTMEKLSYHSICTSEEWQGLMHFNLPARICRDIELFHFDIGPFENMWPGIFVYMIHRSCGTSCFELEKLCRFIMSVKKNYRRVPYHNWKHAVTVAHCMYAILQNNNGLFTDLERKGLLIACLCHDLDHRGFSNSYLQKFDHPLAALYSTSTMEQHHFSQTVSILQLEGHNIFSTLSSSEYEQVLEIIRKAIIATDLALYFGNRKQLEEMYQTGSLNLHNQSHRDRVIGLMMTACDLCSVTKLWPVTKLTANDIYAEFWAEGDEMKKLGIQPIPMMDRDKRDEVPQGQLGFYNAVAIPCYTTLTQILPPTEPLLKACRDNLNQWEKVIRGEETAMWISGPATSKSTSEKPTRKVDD
Kind of assay: In vitro assay PDE10A (SPA, 3H-cAMP). Format: biochemical. As to conditions: read-out: PIC50 PDE10 (converted).

Assay [3] deals with Apomorphine-induced agitation. The assay can be described thus: Reversal of Apomorphine-induced Agitation in Rats (APO). As to conditions: for SC Dose at max effect / SC Max effect (cumulative agitation score over 60 min) / SC LAD (lowest active dose): subcutaneous route; for SC Max effect (cumulative agitation score over 60 min) / PO Max effect (cumulative agitation score over 60 min): apomorphine 1.0 mg/kg i.v.; for SC LAD (lowest active dose) / PO LAD (lowest active dose): lowest dose at which ≥67% tested animals respond. Format: in vivo, rat.
Protocol: Apomorphine (1.0 mg/kg, i.v.)-induced agitation was scored every 5 min over the first hour after injection of apomorphine. The score system was: (3) pronounced, (2) moderate, (1) slight, and (0) absent. […] For the present purpose, the cumulative agitation score over the whole 60-min observation period was used as a measure to describe the maximum effect (Max effect).

[4] abbreviates: -log IC50 expressed in mol/L, rPDE10A2, 60 nM cAMP.

Like-named read-outs stand apart in the source and are kept apart here.

T1 sequence (O00408 whole entry): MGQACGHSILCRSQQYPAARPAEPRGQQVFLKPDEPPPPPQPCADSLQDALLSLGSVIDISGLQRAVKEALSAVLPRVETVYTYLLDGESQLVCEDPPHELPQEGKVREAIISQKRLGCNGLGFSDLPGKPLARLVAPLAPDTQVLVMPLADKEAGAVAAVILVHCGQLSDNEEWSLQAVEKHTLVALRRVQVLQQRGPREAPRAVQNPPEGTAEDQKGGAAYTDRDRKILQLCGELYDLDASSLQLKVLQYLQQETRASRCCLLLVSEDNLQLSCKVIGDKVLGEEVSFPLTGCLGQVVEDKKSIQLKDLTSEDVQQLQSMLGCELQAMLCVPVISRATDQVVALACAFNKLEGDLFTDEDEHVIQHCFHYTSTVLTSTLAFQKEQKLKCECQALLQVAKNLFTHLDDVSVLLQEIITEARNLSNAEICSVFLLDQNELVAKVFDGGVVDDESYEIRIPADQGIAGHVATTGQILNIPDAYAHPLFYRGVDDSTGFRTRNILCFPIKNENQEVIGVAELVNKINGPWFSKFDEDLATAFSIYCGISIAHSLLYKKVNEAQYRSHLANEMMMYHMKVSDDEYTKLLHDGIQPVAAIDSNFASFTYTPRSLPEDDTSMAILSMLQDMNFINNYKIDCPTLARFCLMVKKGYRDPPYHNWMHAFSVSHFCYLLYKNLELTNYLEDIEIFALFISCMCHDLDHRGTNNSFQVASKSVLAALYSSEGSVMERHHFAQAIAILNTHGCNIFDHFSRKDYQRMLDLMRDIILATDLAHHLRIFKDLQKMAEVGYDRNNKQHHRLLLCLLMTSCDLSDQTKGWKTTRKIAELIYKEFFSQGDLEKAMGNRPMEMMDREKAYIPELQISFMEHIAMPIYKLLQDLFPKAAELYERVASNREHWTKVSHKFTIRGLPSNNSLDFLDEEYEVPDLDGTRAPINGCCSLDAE

For the molecule `CCOCc1ccc2nc(C)c3nnc(-c4ccccc4)n3c2c1` [Compound B-12, 8-(Ethoxymethyl)-4-methyl-1-phenyl[1,2,4]triazolo[4,3-a]quinoxaline], in assay [1], the IC50 is 21.4 nM. Further, in assay [2], the IC50 was 269 nM. In assay [3], the SC Dose at max effect was determined as 10 mg/kg, the “SC Max effect (cumulative agitation score over 60 min)” value amounted to 19 and the SC LAD (lowest active dose) was 10 mg/kg.
Regarding `Cc1nc2cc(Br)ccc2n2c(-c3ccccc3Cl)nnc12` [Compound B-3b, 7-Bromo-1-(2-chlorophenyl)-4-methyl[1,2,4]triazolo[4,3-a]quinoxaline], the IC50 in assay [1] is 60.3 nM. Also, the IC50 in assay [2] is 191 nM. In assay [3], the PO Dose at Max Effect turned out to be 10 mg/kg, the “PO Max effect (cumulative agitation score over 60 min)” value was determined as 22 and the PO LAD (lowest active dose) was greater than 10 mg/kg.
For `Cc1nc2ccc(C(=O)NCCc3ccccc3)cc2n2c(-c3ccccc3Cl)nnc12` [Compound B-38], in that order: 0.724 nM, 25.1 nM, 2.5 mg/kg, 19 and 2.5 mg/kg.
Consider `CCOc1ccc(Cl)c(-c2nnc3c(C)nc4ccc(CN5CCC(O)CC5)cc4n23)c1` [Compound B-128], for which the IC50 in assay [1] is 28.8 nM. In addition, the IC50 in assay [2] was 229 nM. For the same molecule, in assay [3], the SC Dose at max effect turned out to be 10 mg/kg, the “SC Max effect (cumulative agitation score over 60 min)” value came to 21 and the SC LAD (lowest active dose) is greater than 10 mg/kg.
For the molecule `Cc1nc2ccc(OC(F)(F)F)cc2n2c(-c3ccccc3Cl)nnc12` [Compound B-4a, 1-(2-Chlorophenyl)-4-methyl-8-(trifluoromethoxy)[1,2,4]triazolo[4,3-a]quinoxaline], the IC50 in assay [1] was 8.32 nM. Moreover, the IC50 in assay [2] was 24.5 nM. In assay [3], the PO Dose at Max Effect came to 10 mg/kg, the “PO Max effect (cumulative agitation score over 60 min)” value stood at 21 and the PO LAD (lowest active dose) is greater than 10 mg/kg.
For the molecule `Cc1nc2ccc(OCCN3CCOCC3)cc2n2c(-c3ccccc3Cl)nnc12` [Compound B-113], the IC50 in assay [1] was 22.9 nM. For the same molecule, in assay [2], the IC50 is 33.1 nM. In assay [3], the SC Dose at max effect is 10 mg/kg, the “SC Max effect (cumulative agitation score over 60 min)” value came out at 8 and the SC LAD (lowest active dose) is 10 mg/kg.
For `CCOC(=O)c1ccc2nc(C)c3nnc(-c4ccccc4Cl)n3c2c1` [Compound B-1a, Ethyl 1-(2-chlorophenyl)-4-methyl[1,2,4]triazolo[4,3-a]quinoxaline-8-carboxylate], in assay [1], the IC50 was 4.27 nM. Also, the IC50 in assay [2] (setting [4]) is 58.9 nM. In assay [3], the PO Dose at Max Effect turned out to be 2.5 mg/kg, the “PO Max effect (cumulative agitation score over 60 min)” value stood at 22 and the PO LAD (lowest active dose) was greater than 2.5 mg/kg.
For the molecule `Cc1nc2ccc(C(=O)NCc3ccccc3)cc2n2c(-c3ccccc3Cl)nnc12` [Compound B-34], in assay [1], the IC50 is 0.372 nM. For the same molecule, the IC50 in assay [2] is 12 nM. In assay [3], the PO Dose at Max Effect was found to be 2.5 mg/kg, the “PO Max effect (cumulative agitation score over 60 min)” value came out at 22 and the PO LAD (lowest active dose) is greater than 2.5 mg/kg.
`CCOc1ccc(Cl)c(-c2nnc3c(C)nc4ccc(OCCc5cccnc5)cc4n23)c1` [Compound B-121]: the IC50 in assay [1] was 33.9 nM. Also, the IC50 in assay [2] is 145 nM. In assay [3], the SC Dose at max effect was found to be 10 mg/kg, the “SC Max effect (cumulative agitation score over 60 min)” value came to 21 and the SC LAD (lowest active dose) is greater than 10 mg/kg.
With `Cc1nc2ccc(C(=O)NCc3cccc(F)n3)cc2n2c(-c3ccccc3Cl)nnc12` [Compound B-32], in assay [1], the IC50 is 0.251 nM. Also, the IC50 in assay [2] is 6.61 nM. Besides, in assay [3], the PO Dose at Max Effect amounted to 10 mg/kg, the “PO Max effect (cumulative agitation score over 60 min)” value is recorded as 22 and the PO LAD (lowest active dose) is greater than 10 mg/kg.
Turning to `COc1ccccc1-c1nnc2c(C)nc3ccc(C(=O)NCc4ccccn4)cc3n12` [Compound B-53], in assay [1], the IC50 was 3.09 nM. Besides, in assay [2], the IC50 is 37.2 nM. Besides, in assay [3], the PO Dose at Max Effect is 10 mg/kg, the “PO Max effect (cumulative agitation score over 60 min)” value worked out at 24 and the PO LAD (lowest active dose) is greater than 10 mg/kg.
For the molecule `CCOc1ccc(Cl)c(-c2nnc3c(C)nc4ccc(Br)cc4n23)c1` [Compound B-85], the IC50 in assay [1] was 10.7 nM. The IC50 in assay [2] was 123 nM. Moreover, in assay [3], the PO Dose at Max Effect was determined as 10 mg/kg, the “PO Max effect (cumulative agitation score over 60 min)” value is recorded as 21 and the PO LAD (lowest active dose) is greater than 10 mg/kg.
For the molecule `Cc1nc2ccc(CN3CCOC(CCF)C3)cc2n2c(-c3ccccc3Cl)nnc12` (stereo not drawn) [Compound B-89], the IC50 in assay [1] was 11.7 nM. Further, the IC50 in assay [2] is 50.1 nM. In assay [3], the SC Dose at max effect was determined as 5 mg/kg, the “SC Max effect (cumulative agitation score over 60 min)” value is 24 and the SC LAD (lowest active dose) is greater than 5 mg/kg.
As for `COc1cc(NC(=O)c2ccc3nc(C)c4nnc(-c5ccccc5Cl)n4c3c2)cc(OC)c1OC` [Compound B-49], the IC50 in assay [1] is 2.34 nM. Moreover, the IC50 in assay [2] was 77.6 nM. In assay [3], the PO Dose at Max Effect stood at 10 mg/kg, the “PO Max effect (cumulative agitation score over 60 min)” value turned out to be 24 and the PO LAD (lowest active dose) was greater than 10 mg/kg.
As to `Cc1nc2ccc(CN3CCOC(CCO)C3)cc2n2c(-c3ccccc3Cl)nnc12` (stereo not drawn) [Compound B-63], the IC50 in assay [1] was 5.62 nM. For the same molecule, in assay [2], the IC50 was 9.33 nM. Besides, in assay [3], the SC Dose at max effect was 10 mg/kg, the “SC Max effect (cumulative agitation score over 60 min)” value worked out at 19 and the SC LAD (lowest active dose) turned out to be 10 mg/kg.
`Cc1nc2ccc(C(=O)NCCF)cc2n2c(-c3ccccc3Cl)nnc12` [Compound B-40]: the IC50 in assay [1] is 1.02 nM. For the same molecule, the IC50 in assay [2] was 18.6 nM. Further, in assay [3], the PO Dose at Max Effect was determined as 10 mg/kg, the “PO Max effect (cumulative agitation score over 60 min)” value was found to be 22 and the PO LAD (lowest active dose) is greater than 10 mg/kg.
In the case of `COc1ccc2nc(C)c3nnc(-c4ccccc4Cl)n3c2c1` [Compound B-5, 1-(2-Chlorophenyl)-8-methoxy-4-methyl[1,2,4]triazolo[4,3-a]quinoxaline], the IC50 in assay [1] was 7.59 nM. Also, in assay [2], the IC50 was 25.1 nM. In assay [3], the PO Dose at Max Effect stood at 10 mg/kg, the “PO Max effect (cumulative agitation score over 60 min)” value was 21 and the PO LAD (lowest active dose) was greater than 10 mg/kg.
As to `COCC1CN(Cc2ccc3nc(C)c4nnc(-c5ccccc5Cl)n4c3c2)CCO1` (stereo not drawn) [Compound B-75], in assay [1], the IC50 was 6.92 nM. Besides, the IC50 in assay [2] is 63.1 nM. Moreover, in assay [3], the SC Dose at max effect was 10 mg/kg, the “SC Max effect (cumulative agitation score over 60 min)” value was determined as 15 and the SC LAD (lowest active dose) is 2.5 mg/kg.
With `Cc1nc2ccc(NCCc3ccccn3)cc2n2c(-c3ccccc3Cl)nnc12` [Compound B-60], the IC50 in assay [1] is 5.01 nM. The IC50 in assay [2] was 6.61 nM. For the same molecule, in assay [3], the PO Dose at Max Effect turned out to be 10 mg/kg, the “PO Max effect (cumulative agitation score over 60 min)” value is reported as 21 and the PO LAD (lowest active dose) was greater than 10 mg/kg.
Turning to `Cc1nc2ccc(C(=O)NCCc3ccccc3)cc2n2c(-c3ccccc3)nnc12` [Compound B-54], in assay [1], the IC50 is 3.47 nM. For the same molecule, the IC50 in assay [2] is 93.3 nM. Moreover, in assay [3], the PO Dose at Max Effect came to 2.5 mg/kg, the “PO Max effect (cumulative agitation score over 60 min)” value was found to be 22 and the PO LAD (lowest active dose) was greater than 2.5 mg/kg.
Take `Cc1nc2ccc(CN3CCC(O)CC3)cc2n2c(-c3ccccc3Cl)nnc12` [Compound B-81]: the IC50 in assay [1] was 9.55 nM. Also, the IC50 in assay [2] (setting [4]) was 37.2 nM. Also, in assay [3], the SC Dose at max effect is 10 mg/kg, the “SC Max effect (cumulative agitation score over 60 min)” value came to 19 and the SC LAD (lowest active dose) worked out at 10 mg/kg.
